Experiments:
PI3K (p110α) = PI3K (p110α) (Homo sapiens, UniProt P42336); assay: In vitro enzyme activity assay, PI3K (p110α) kinase, Method I (HTRF); type: biochemical; set-up: recombinant full-length human PI3K p110α subunit; His-tag (N); host or cells: insect cells; conditions: 10 μM PI(4,5)P2 and 10 μM ATP), read-out: PI3K (p110α) enzyme activity_IC50
Protocol: PI3K (p110α) kinase activities of the compounds in all the examples of the present invention were tested via the following two methods, respectively.
Reaction buffer: HEPES 50 mM (pH7.0), NaN3 0.02%, BSA 0.01%. Orthovanadate 0.1 mM, and 1% DMSO.
Detection buffer: HEPES 10 mM (pH7.0), BSA 0.02%, KF 0.16 M, and EDTA 4 mM.
Enzymes for reaction: recombinant full-length human PI3K p110α subunit (molecular weight=128.4 kDa) with a His-tag at the N-terminus and unlabeled p85α subunit (molecular weight=83.6 kDa), which were expressed in insect cells.
Substrate for reaction: […] PIP2 substrate (PI(4,5)P2).
Reaction conditions: 10 μM PI(4,5)P2 and 10 μM ATP.
1. preparing the substrate in the freshly prepared reaction buffer;
(§1) 2. adding the kinase into the substrate reaction solution, and mixing gently;
3. transferring the compound dissolved in 100% DMSO into the kinase reaction solution by using Acoustic technique (Echo550; nanoliter rang), and incubating at room temperature for 10 minutes;
4. adding an appropriate concentration of ATP into the reaction system,
5. incubating at 30° C. for half an hour;
6. terminating the reaction by adding a stop solution;
7. adding the detection buffer and incubating overnight; and
8. detecting by using homogeneous time-resolved fluorescence (HTRF) method (excitation wavelength of 320 nm, measuring the ratio of the emission wavelength readings at 615 nm and 665 nm).

mTOR = molecular target: T1, mTOR (Homo sapiens, UniProt P42345); assay: In vitro enzyme activity assay, mTOR kinase (32P-ATP, P81 filter-binding); type: biochemical; conditions: 4EBPI substrate, 10 μM ATP; read-out: mTOR enzyme activity_IC50
T1 construct: recombinant human mTOR fragment (amino acid 1360-2549, molecular weight=163.9 kDa); GST-tag (N); host or cells: insect cells
T1 sequence (P42345 1360-2549): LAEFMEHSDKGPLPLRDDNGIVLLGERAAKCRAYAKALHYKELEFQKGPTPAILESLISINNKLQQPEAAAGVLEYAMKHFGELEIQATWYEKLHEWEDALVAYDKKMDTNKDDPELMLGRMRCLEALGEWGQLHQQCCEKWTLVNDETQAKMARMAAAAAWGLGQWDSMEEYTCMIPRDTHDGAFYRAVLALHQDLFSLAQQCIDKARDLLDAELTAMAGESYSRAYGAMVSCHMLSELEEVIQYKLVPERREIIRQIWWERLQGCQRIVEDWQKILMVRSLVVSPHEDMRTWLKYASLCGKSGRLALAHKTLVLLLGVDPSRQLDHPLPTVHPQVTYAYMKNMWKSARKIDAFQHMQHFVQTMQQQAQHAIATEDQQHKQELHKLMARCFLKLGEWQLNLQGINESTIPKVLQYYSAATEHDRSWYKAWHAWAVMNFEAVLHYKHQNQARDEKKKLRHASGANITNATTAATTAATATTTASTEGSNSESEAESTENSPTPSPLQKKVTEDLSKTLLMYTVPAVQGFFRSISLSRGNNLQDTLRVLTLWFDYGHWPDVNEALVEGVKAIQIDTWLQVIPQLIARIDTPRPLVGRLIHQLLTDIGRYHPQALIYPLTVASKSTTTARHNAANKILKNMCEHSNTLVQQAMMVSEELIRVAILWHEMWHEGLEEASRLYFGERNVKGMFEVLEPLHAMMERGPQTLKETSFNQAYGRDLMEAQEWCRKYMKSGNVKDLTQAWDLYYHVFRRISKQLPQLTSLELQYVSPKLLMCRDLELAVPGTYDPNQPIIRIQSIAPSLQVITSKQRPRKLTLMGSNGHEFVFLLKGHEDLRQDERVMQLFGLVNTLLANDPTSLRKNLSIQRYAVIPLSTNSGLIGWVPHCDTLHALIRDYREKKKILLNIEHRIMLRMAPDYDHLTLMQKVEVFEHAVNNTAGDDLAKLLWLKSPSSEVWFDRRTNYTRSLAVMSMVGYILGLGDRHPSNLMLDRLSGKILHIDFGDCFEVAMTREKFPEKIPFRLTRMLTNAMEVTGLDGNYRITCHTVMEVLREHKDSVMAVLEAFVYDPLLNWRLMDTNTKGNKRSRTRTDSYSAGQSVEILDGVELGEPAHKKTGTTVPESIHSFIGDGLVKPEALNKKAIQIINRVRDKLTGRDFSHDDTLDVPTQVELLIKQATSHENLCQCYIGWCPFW
Protocol: mTOR kinase activities of the compounds in all the examples of the present invention were tested via the following method.
Reaction buffer: 20 mM Hepes (pH 7.5), 10 mM MgCl2, 2 mM MnCl2, 1 mM EGTA, 0.02% Brij35, 0.02 mg/mL BSA, 0.1 mM Na3VO4, 2 mM DTT, and 2% DMSO.
Enzyme for reaction: recombinant human mTOR fragment (amino acid 1360-2549, molecular weight=163.9 kDa) with a GST-tag at the N-terminus, which was expressed in insect cells.
Substrate for reaction: recombinant full-length human 4EBPI (molecular weight=13.6 kDa) with a His-tag at the N-terminus, which was expressed in bacteria.
Reaction conditions: […] 4EBPI and 10 μM ATP.
1. adding the reaction substrate and other reaction factors into the freshly prepared reaction buffer;
as §1
3. transferring the compound dissolved in 100% DMSO into the kinase reaction solution by using Acoustic technique (Echo550; nanoliter rang), and incubating at room temperature for 20 minutes;
4. adding an appropriate concentration of ^32P-ATP into the reaction system;
5. incubating at room temperature for 2 hours;
6. detecting the kinase activity by using P81 filter-binding method.

MCF-7 cells = assay: In vitro cell activity assay (MCF-7, insulin stimulation, ELISA-One); type: cell-based; conditions: Homo sapiens, MCF7, compound 2 hours in serum-free media, then 10 μg/ml insulin 30 min
Protocol: Experimental Steps and Method Comprise:
1. MCF-7 cells were seeded at 2,5000 cells per well in a 96 well tissue culture plate in a complete media containing 10%0/FBS.
3. The cells were treated with 10 μg/ml insulin in serum-free media for 30 min.
4. During waiting period, lysis solution was prepared as below:
a) Enhancer Solution needs to be taken out from the refrigerator to be thawed.
b) Concentrated lysis solution was prepared by diluting Enhancer Solution 10-fold in 5× Lysis Buffer.
c) Lysis solution was prepared by diluting concentrated lysis solution 5-fold with ddH2O.
5. Any media were removed from wells and the wells were rinsed with PBS once quickly.
6. 50 μL of freshly prepared lysis solution were added into each well, with shaking at room temperature for 10 min.
7. After confirming that all cells get detached from wells, the lysis solution together with the cell debris was transferred to 1.5 ml tubes.
8. The tubes were vortexed several times to thoroughly mix the lysis solution and cells, and then, and then the mixture was centrifuged at 12,000 g for 10 min at 4° C.;
9. The desired number of ELISA-One microplate strips was determined. Unused strips were removed from frame and returned to storage pouch and seal. Wells for use in the assay were rinsed with 200 μL ddH2O to remove preservatives prior to use.
10. 50 μL of antibody mixture solution was added into each well. (Antibody mixture solution was prepared by mixing capture antibody reagent and detection antibody reagent equally, avoid vortexing)
11. 25 μL of lysate was added into each well of the ELISA-One microplate. The microplate was covered with adhesive seal and incubated for 1 hour at room temperature on a microplate shaker.
12. Each well was washed with 150 μL 1× wash buffer 3 times. After final wash, any remaining wash buffer was removed from wells. If necessary, leave microplate in 1× Wash Buffer for up to 30 min, until substrate mixture solution has been prepared.
13. The substrate mixture solution should be prepared when used, 100 μL of substrate mixture solution was added into each well, and then the microplate was sealed with tin foil and incubated at room temperature for 10 minutes on a microplate shaker.
14. 10 μL of stop solution was added into each well, and then mixed slightly (5-10 seconds) on a microplate shaker.
15. Corresponding ELISA-One filter set was installed to read the fluorescence signal intensity.

PI3K (p110α), sequence (P42336 whole entry): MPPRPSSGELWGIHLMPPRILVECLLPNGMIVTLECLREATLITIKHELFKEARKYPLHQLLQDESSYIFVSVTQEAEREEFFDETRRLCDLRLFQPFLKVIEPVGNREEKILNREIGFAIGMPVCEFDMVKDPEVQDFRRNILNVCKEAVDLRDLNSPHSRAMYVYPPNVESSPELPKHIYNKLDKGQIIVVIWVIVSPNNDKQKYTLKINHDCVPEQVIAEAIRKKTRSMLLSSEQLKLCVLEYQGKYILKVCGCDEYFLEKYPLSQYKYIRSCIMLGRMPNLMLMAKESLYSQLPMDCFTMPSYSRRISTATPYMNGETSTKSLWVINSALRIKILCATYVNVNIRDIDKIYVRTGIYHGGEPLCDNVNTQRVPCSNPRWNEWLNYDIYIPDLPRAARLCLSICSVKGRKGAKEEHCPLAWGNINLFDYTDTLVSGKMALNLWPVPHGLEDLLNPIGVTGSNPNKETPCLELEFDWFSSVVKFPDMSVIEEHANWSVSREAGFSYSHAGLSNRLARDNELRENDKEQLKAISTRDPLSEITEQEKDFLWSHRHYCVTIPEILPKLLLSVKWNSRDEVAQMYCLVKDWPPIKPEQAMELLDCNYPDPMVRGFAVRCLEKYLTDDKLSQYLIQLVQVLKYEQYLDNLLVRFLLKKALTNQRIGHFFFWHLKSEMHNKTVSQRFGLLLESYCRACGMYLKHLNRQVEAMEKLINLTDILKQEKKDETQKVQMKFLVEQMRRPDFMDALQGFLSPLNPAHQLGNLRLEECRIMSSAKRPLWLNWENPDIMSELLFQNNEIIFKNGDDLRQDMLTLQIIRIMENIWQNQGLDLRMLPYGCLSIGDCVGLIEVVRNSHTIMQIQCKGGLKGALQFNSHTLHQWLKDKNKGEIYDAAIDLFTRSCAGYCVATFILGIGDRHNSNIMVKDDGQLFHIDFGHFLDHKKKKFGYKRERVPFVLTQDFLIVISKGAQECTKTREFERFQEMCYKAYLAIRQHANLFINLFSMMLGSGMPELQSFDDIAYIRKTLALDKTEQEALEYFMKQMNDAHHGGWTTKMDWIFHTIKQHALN
PI3K (p110α), sequence (P27986 whole entry partner): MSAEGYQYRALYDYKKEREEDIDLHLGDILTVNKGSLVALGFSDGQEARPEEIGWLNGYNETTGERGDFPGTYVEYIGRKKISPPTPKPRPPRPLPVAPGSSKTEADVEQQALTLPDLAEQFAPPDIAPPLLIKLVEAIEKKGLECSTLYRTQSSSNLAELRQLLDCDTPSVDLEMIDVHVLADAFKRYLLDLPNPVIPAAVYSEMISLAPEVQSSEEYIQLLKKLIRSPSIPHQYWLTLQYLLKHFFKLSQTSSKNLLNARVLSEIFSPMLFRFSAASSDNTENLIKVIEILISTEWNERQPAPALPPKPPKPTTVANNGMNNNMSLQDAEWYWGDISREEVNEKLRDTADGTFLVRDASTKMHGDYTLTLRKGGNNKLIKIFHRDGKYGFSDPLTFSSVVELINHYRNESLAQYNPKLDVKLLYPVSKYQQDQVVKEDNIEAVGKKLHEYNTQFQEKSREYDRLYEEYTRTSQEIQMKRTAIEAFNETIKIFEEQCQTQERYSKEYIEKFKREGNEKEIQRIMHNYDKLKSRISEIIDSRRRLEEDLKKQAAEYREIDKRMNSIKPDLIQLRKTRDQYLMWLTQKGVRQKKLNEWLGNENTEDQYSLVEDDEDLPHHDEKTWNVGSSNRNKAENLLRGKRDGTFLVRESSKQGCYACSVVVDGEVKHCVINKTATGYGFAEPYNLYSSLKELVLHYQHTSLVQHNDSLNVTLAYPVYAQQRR

SMILES	IC50 (PI3K (p110α)) [µM]	IC50 (mTOR) [µM]	IC50 (MCF-7 cells) [µM]
COc1ncc(-c2ccc3ncc(OCCN(C)C)c(=O)n3c2)cc1NS(=O)(=O)c1sc(C)nc1C [Compound 35]	≤ 0.001	0.05 to 0.2	≤ 0.05
COc1ncc(-c2ccc3ncc(OCCN(C)C)c(=O)n3c2)cc1NS(=O)(=O)c1sccc1C [Compound 36]	≤ 0.001	> 0.2	≤ 0.05
COc1ncc(-c2ccc3ncc(OCCn4cccn4)c(=O)n3c2)cc1NS(=O)(=O)c1ccc(F)cc1F [Compound 37, 2,4-Difluoro-N-(2-methoxy-5-(4-oxo-3-(2-pyrazol-1-yl-ethoxy)pyrido[1,2-a]pyrimidin-7-yl)pyridin-3-yl)benzenesulfonamide]	≤ 0.001	0.05 to 0.2	0.1 to 0.25

More lines, now with the values ahead:

IC50 (PI3K (p110α)) [µM]	IC50 (mTOR) [µM]	IC50 (MCF-7 cells) [µM]	SMILES
≤ 0.001	> 0.2	0.1 to 0.25	COc1ncc(-c2ccc3ncc(OCCN4CCCC4)c(=O)n3c2)cc1NS(=O)(=O)c1ccc(F)cc1F [Compound 42]
≤ 0.001	> 0.2	0.05 to 0.1	COc1ncc(-c2ccc3ncc(OCCN(C)C)c(=O)n3c2)cc1NS(=O)(=O)c1ccc(F)cc1F [Compound 43]

Reference: US9856256B2, “Pyridino[1,2-A]pyrimidone analogue used as P13K inhibitor” (CHIA TAI TIANQING PHARMACEUTICAL GROUP CO., LTD., priority 2014, dated 2018)
